Patent publication US11679168B2, “Caspase-3-triggered molecular self-assembling PET probes and uses thereof” (The Board of Trustees of the Leland Stanford Junior …, priority 2018, dated 2023)

System: H1299 tumor
Test: PET/CT imaging of H1299 tumor-bearing mice
Assay type: in vivo
Conditions: for radioactivity retention in tumor: 85 min post-injection
Description: FIGS. 4A and 4D illustrate representative 55- to 60-min axial and sagittal fused PET/CT images. Nude mice received approximately 200 μCi of [18F]-C-SNAT4 via tail vein injection, with PET/CT images acquired at 55 to 60 min after injection. Arrowheads indicate the tumor, identified from the CT images. H460 and H1299 tumor bearing mice were naïve, or 24 h following last dose of cisplatin treatment (Low dose: 3 mg/kg every other day for three times; high dose: 9 mg/kg every other day for three times).
Animal model and probe administration: For subcutaneous tumor models, H460 or H1299 (2×10^6 cells in 100 μl of PBS) were injection subcutaneously on the back of female nu/nu nude mice (aged 6 to 8 weeks; Charles River Laboratories). Tumor dimensions were measured periodically using a caliper (by the same researcher), with tumor volumes calculated by the following equation: volume=a×b×c/2, where a, b, and c represent three orthogonal axis of the tumor. Treatment-response analysis was performed 24 h after drug treatment. For all other experiments, animals were culled 26 h after therapy and tissues excised for analysis. For chemotherapy mouse model, tumors were grown to about 150 mm^3, and then treatment that consisted of cisplatin (Sigma-Aldrich; Low dose: 3 mg/kg; high dose: 9 mg/kg) or saline was initiated through intravenous administration, every other day for three times. Total mouse body weight and tumor size were measured every other day. Treat or left untreated. For radiotherapy mouse model, treatment consisted of two fractions of 5 Gy or 2 Gy dose of radiation therapy delivered with a single 225 kV beam using the Kimtron IC 225 irradiator (Kimtron Medical, CT, USA).
Small-animal PET/CT imaging and analysis: PET/CT imaging was carried out on a docked Siemens Inveon PET/CT scanner (matrix size, 128×128×159; CT attenuation-corrected; non-scatter corrected) (Siemens Medical Solutions USA) following a bolus intravenous injection of approximately 200 μCi of [^18F]-C-SNAT4 into tumor-bearing mice (n=56, 3-4 mice per group). Dynamic scans were acquired in list mode format over 90 min, and sorted into 22 times of frames, 0.5-mm sinogram bins for image reconstruction (4×15 s, 4×60 s, 11×300 s, 3×600 s). Mice were anesthetized with 2% isoflurane near the center of the FOV to ensure the highest image resolution and sensitivity. Iterative reconstruction was performed using 3D ordered-subsets expectation maximization (3D-OSEM) followed by fast maximum a posteriori (fast MAP) with the following parameters: MAP OSEM iterations, 2; MAP subsets, 16; MAP iterations, 18. Siemens Inveon Research Workplace software v.4.0 was used for visualization of radiotracer uptake in the tumor, to define the three-dimensional (3D) volumes of interest (VOI) and for 3D-visualisation to create volume rendering technique (VRT) images. The relative tumor or organ radioactivity concentrations were from mean pixel values within the multiple ROI volumes. The radioactivity concentration within organs was obtained from mean pixel values with in the VOI and converted to counts per milliliter per min and then divided by the injected dose (ID) to obtain an imaging VOI-derived percentage of the injected radioactive dose per cubic centimeter of tissue (% ID/cc).

## CCSSCC(NC(=O)C(CC(=O)O)NC(=O)C(NC(=O)C(CCC(=O)O)NC(=O)C(CC(=O)O)NC(C)=O)C(C)C)C(=O)NCC(=O)NC(Cc1cn(CCOCCOCCOCC[18F])nn1)C(=O)NCc1ccc(C(=O)NCCCOc2cnc(C#N)nc2)cc1 (stereo not drawn) [[^18F]-C-SNAT4]
H1299, high doses cisplatin
  AUC of time activity curve: 64.2±27.8 % ID min/cc
  radioactivity retention in tumor: 0.5±0.3 % ID/cc
H1299, low doses cisplatin
  AUC of time activity curve: 66.0±6.8 % ID min/cc
  radioactivity retention in tumor: 0.4±0.2 % ID/cc
H1299, saline
  AUC of time activity curve: 41.2±25.4 % ID min/cc
  radioactivity retention in tumor: 0.4±0.1 % ID/cc
